Measured values published in patent US5242938A, “Derivatives of virginiamycin M1” (Merck & Co., Inc., priority 1992, dated 1993).
Converted amounts (≈) assume the structure as drawn. Like-named read-outs stand apart in the source and are kept apart here.

Legend:
[1] = test system: Bacillus subtilis (Mb 964, ATCC 6633); test: Agar diffusion disc assay, Subt 964; format: cell-based; settings: Bacillus subtilis, ATCC6633, 18 h, read-out: Inhibition zone diameter, Subt 964
Experimental: (§1) Cultures employed in evaluating antimicrobial activity included plant pathogens, human and animal opportunistic pathogens and selected laboratory strains having specific-antibiotic sensitivities or chromosomal or R-plasmid-mediated resistances. […] The agar diffusion MIC's were determined using the method described by Barry in Anitbiotics in Laboratory Medicine, 2nd Ed., Ed. V. Lorian, pp. 1-63, William & Wilkins, Baltimore, 1986. Each test compound was dissolved in methanol to a concentration of 1 mg/ml. Serial dilutions of these compounds were also made to determine an agar diffusion MIC. 20 μl of each dilution was pipetted on to 6 mm paper discs, air dried and placed onto the surface of an agar plate seeded with the appropriate bacteria (~10^6 cfu). Seeded agar plates were incubated overnight (~18 hours) at 25° C. Zone sizes were measured to the nearest mm. Each compound was tested in triplicate and the results shown represent the mean.

[2] = test system: Streptococcus faecium (Mb 2820); test: Agar diffusion disc assay, Str 2820; format: cell-based; settings: Enterococcus faecium, 18 h
Experimental: as §1

[3] = test system: Escherichia coli (Mb 1418); test: Agar diffusion disc assay, Coli 1418; format: cell-based; settings: Escherichia coli, 18 h
Experimental: as §1

[4] = test system: Salmonella gallinarum (Mb 1287); test: Agar diffusion disc assay, Salm 1287; format: cell-based; settings: Salmonella enterica, GALLINARUM, 18 h, read-out: Inhibition zone diameter, Salm 1287
Experimental: as §1

[5] = test system: Staphylococcus aureus (Mb 108, ATCC 6538P); test: Agar diffusion disc assay, Sta 108; format: cell-based; settings: Staphylococcus aureus, ATCC6538P, 18 h
Experimental: as §1

[6] = biological target: T1, CCK-B (guinea pig cortex) (Cavia porcellus, UniProt H0VZC5); test: [125I]BHCCK-8 radioligand binding, guinea pig cortical preparation; settings: read-out: CCK binding inhibition - IC50, [125I]BHCCK
T1 construct: guinea pig cortical preparations; from tissue; host or cells: guinea pig brain cortex membranes
T1 sequence (H0VZC5 1-426): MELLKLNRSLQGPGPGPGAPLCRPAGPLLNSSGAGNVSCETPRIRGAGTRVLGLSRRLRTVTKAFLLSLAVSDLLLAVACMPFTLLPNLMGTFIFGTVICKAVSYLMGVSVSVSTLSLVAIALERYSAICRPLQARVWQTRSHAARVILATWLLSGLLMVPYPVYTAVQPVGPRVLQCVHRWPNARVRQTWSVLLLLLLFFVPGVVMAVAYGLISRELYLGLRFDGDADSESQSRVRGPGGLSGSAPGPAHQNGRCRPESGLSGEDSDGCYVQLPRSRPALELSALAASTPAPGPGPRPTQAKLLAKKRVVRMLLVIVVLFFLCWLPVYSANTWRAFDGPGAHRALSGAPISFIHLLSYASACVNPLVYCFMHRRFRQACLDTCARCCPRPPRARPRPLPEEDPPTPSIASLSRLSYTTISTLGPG
Experimental: (§2) The resulting supernatant was re-spun at 20,000×g for 20 minutes. […] Incubations were for 40 minutes at 4° C. and were terminated by filtration and washing with ice cold 100 mM saline. […] Incubations were for 30 minutes at room temperature and were terminated by filtration over GF/C filters and washing with 100 mM NaCl.

[7] = test system: Corynebacterium pseudodiphtheriticum (Mb 261, ATCC 9742); test: Agar diffusion disc assay, Cory 261; format: cell-based; settings: Corynebacterium pseudodiphtheriticum, ATCC9742, 18 h
Experimental: as §1

[8] = test system: Staphylococcus aureus (Mb 2983); test: Agar diffusion disc assay, Sta 2983; format: cell-based; settings: Staphylococcus aureus, 18 h
Experimental: as §1

[9] = biological target: T2, CCK-A (rat pancreas) (Rattus norvegicus, UniProt P30551); test: [125I]BHCCK-8 radioligand binding, rat pancreatic preparation; settings: read-out: CCK binding inhibition - IC50, [125I]BHCCK
T2 construct: from tissue; host or cells: rat pancreas
T2 sequence (P30551 1-444): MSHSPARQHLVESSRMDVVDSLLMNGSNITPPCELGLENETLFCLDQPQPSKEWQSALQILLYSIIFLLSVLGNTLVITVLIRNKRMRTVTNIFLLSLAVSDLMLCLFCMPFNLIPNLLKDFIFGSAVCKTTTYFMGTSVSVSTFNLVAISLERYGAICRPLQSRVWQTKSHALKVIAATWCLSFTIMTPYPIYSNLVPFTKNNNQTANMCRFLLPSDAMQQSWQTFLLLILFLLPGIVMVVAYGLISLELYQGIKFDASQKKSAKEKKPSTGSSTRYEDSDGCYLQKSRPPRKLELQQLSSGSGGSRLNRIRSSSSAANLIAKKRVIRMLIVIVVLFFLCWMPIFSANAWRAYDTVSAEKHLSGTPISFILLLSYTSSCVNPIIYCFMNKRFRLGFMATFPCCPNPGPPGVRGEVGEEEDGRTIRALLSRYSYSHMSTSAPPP
Experimental: as §2

[10] = test system: Micrococcus luteus (Mb 1101, ATCC 9341); test: Agar diffusion disc assay, Micr 1101; format: cell-based
Experimental: as §1

[11] = test system: Bacillus sp. (Mb 633); test: Agar diffusion disc assay, Baci 633; format: cell-based; settings: Bacillus, 18 h
Experimental: as §1

[12] = test system: Pseudomonas stutzeri (Mb 1231, ATCC 11607); test: Agar diffusion disc assay, Pseu 1231; format: cell-based; settings: Stutzerimonas stutzeri, ATCC11607, 18 h
Experimental: as §1

[13] = test system: Streptococcus agalactiae (Mb 2875); test: Agar diffusion disc assay, Str 2875; format: cell-based; settings: Streptococcus agalactiae, 18 h
Experimental: as §1

[14] = biological target: T1, CCK-B (guinea pig cortex); test: [3H]L-365,260 CCK-B selective antagonist ligand binding, brain membranes; settings: for IC50: read-out: CCK binding inhibition - IC50, [3H]L-365,260
Experimental: as §2

[15] = test system: En terobacter aergenes (Mb 835); test: Agar diffusion disc assay, Ent 835; format: cell-based; settings: 18 h, read-out: Inhibition zone diameter, Ent 835
Experimental: as §1

[16] = biological target: T2, CCK-A (rat pancreas); test: [3H]L-364,718 CCK-A selective antagonist ligand binding, pancreas; settings: read-out: CCK binding inhibition - IC50, [3H]L-364,718
Experimental: as §2

[17] = @ 20 g/disc, read-out: Inhibition zone diameter, Str 2820
[18] = @ 20 g/disc, read-out: Inhibition zone diameter, Coli 1418
[19] = @ 20 g/disc, read-out: Inhibition zone diameter, Sta 108
[20] = @ 20 g/disc, read-out: Inhibition zone diameter, Cory 261
[21] = @ 20 g/disc, read-out: Inhibition zone diameter, Sta 2983
[22] = Micrococcus luteus, ATCC9341, 18 h; @ 20 g/disc; read-out: Inhibition zone diameter, Micr 1101
[23] = Micrococcus luteus, ATCC9341, 18 h; read-out: Agar Diffusion MIC versus Micrococcus luteus
[24] = Micrococcus luteus, ATCC9341; 2.50 μg/disc; 25° C., ~18 hours; read-out: Mean of triplicate zone size versus Micrococcus luteus
[25] = Micrococcus luteus, ATCC9341; 5.00 μg/disc; 25° C., ~18 hours; read-out: Mean of triplicate zone size versus Micrococcus luteus
[26] = Micrococcus luteus, ATCC9341; 10.0 μg/disc; 25° C., ~18 hours; read-out: Mean of triplicate zone size versus Micrococcus luteus
[27] = Micrococcus luteus, ATCC9341; 20.0 μg/disc; 25° C., ~18 hours; read-out: Mean of triplicate zone size versus Micrococcus luteus
[28] = @ 20 g/disc, read-out: Inhibition zone diameter, Pseu 1231
[29] = @ 20 g/disc, read-out: Inhibition zone diameter, Str 2875
[30] = @ 20 g/disc, read-out: Inhibition zone diameter, Baci 633

| Structure (SMILES) | zone of inhibition at 20 µg/disc ([1]; @ 20 g/disc) | zone of inhibition at 20 µg/disc [2, 17] | zone of inhibition at 20 µg/disc [3, 18] | zone of inhibition at 20 µg/disc ([4]; @ 20 g/disc) | zone of inhibition at 20 µg/disc [5, 19] | IC50 [6] | zone of inhibition at 20 µg/disc [7, 20] | zone of inhibition at 20 µg/disc [8, 21] | IC50 [9] | zone of inhibition at 20 µg/disc [10, 22] | MIC [10, 23] | zone of inhibition at 2.5 µg/disc [10, 24] | zone of inhibition at 5 µg/disc [10, 25] | zone of inhibition at 10 µg/disc [10, 26] | zone of inhibition at 20 µg/disc [10, 27] | zone of inhibition at 20 µg/disc [12, 28] | zone of inhibition at 20 µg/disc [13, 29] | A.R. = agonist ratio = IC50([3H]L365,260)/IC50([125I]CCK) [14] | IC50 [14] | IC50 [16] | other results |
| --- | --- | --- | --- | --- | --- | --- | --- | --- | --- | --- | --- | --- | --- | --- | --- | --- | --- | --- | --- | --- | --- |
| CCC(=O)O[C@@H]1/C=C(C)/C=C/CNC(=O)/C=C/[C@@H](C)[C@@H](C(C)C)OC(=O)C2=CCCN2C(=O)c2coc(n2)CC(=O)C1 [Example 3] | 21 mm | 0 mm | 0 mm | 0 mm | 0 mm | 600 nM | 0 mm | 12 mm | > 3000 nM | 0 mm | 2.51 µM (≈ 1.46 µg/mL) | 7 mm | 13 mm | 17 mm | 19 mm | 0 mm | 0 mm | 2 | 1000 nM | > 3000 nM | zone of inhibition at 20 µg/disc ([11]; read-out: Inhibition zone diameter, Baci 633, @ 20 g/disc): 11 mm; zone of inhibition at 20 µg/disc ([15]; @ 20 g/disc): 0 mm |
| CCCCC(=O)O[C@@H]1/C=C(C)/C=C/CNC(=O)/C=C/[C@@H](C)[C@@H](C(C)C)OC(=O)C2=CCCN2C(=O)c2coc(n2)CC(=O)C1 [Example 4] | 0 mm | 0 mm | 0 mm | 0 mm | 0 mm | 500 nM | 0 mm | 0 mm | > 3000 nM | 25 mm | 0.54 µM (≈ 0.329 µg/mL) | 16 mm | 19 mm | 21 mm | 22 mm | 0 mm | 0 mm | 2 | 1200 nM | > 3000 nM | zone of inhibition at 1.25 µg/disc ([10]; Micrococcus luteus, ATCC9341; 1.25 μg/disc; 25° C., ~18 hours; read-out: Mean of triplicate zone size versus Micrococcus luteus): 12 mm; zone of inhibition at 20 µg/disc [11, 30]: 0 mm; zone of inhibition at 20 µg/disc ([15]; @ 20 g/disc): 0 mm |
| CC1=C\[C@@H](OC(=O)Cc2ccccc2)CC(=O)Cc2nc(co2)C(=O)N2CCC=C2C(=O)O[C@H](C(C)C)[C@H](C)/C=C/C(=O)NC\C=C\1 [Example 5] |  |  |  |  |  | 600 nM |  |  | > 3000 nM |  |  |  |  |  |  |  |  | ~ 10 | > 3000 nM | > 3000 nM | zone of inhibition at 20 µg/disc [1]: 0 mm; zone of inhibition at 20 µg/disc ([2]; read-out: Inhibition zone diameter, Str 2820, @ 20 g/disc): 0 mm; zone of inhibition at 20 µg/disc ([3]; read-out: Inhibition zone diameter, Coli 1418, @ 20 g/disc): 0 mm; zone of inhibition at 20 µg/disc [4]: 0 mm; zone of inhibition at 20 µg/disc ([5]; read-out: Inhibition zone diameter, Sta 108, @ 20 g/disc): 0 mm; zone of inhibition at 20 µg/disc ([7]; read-out: Inhibition zone diameter, Cory 261, @ 20 g/disc): 0 mm; zone of inhibition at 20 µg/disc ([8]; read-out: Inhibition zone diameter, Sta 2983, @ 20 g/disc): 0 mm; MIC ([10]; Micrococcus luteus, ATCC9341, 18 h, read-out: Agar Diffusion MIC versus Micrococcus luteus): 0.41 µM (≈ 0.264 µg/mL); zone of inhibition at 20 µg/disc ([10]; Micrococcus luteus, ATCC9341, 18 h, read-out: Inhibition zone diameter, Micr 1101, @ 20 g/disc): 12 mm; zone of inhibition at 5 µg/disc ([10]; Micrococcus luteus, ATCC9341, 18 h, read-out: Mean of triplicate zone size versus Micrococcus luteus, 5.00 μg/disc; 25° C., ~18 hours): 10 mm; zone of inhibition at 20 µg/disc ([10]; Micrococcus luteus, ATCC9341, 18 h, read-out: Mean of triplicate zone size versus Micrococcus luteus, 20.0 μg/disc; 25° C., ~18 hours): 13 mm; zone of inhibition at 40 µg/disc ([10]; Micrococcus luteus, ATCC9341, 18 h, read-out: Mean of triplicate zone size versus Micrococcus luteus, 40.0 μg/disc; 25° C., ~18 hours): 14 mm; zone of inhibition at 80 µg/disc ([10]; Micrococcus luteus, ATCC9341, 18 h, read-out: Mean of triplicate zone size versus Micrococcus luteus, 80.0 μg/disc; 25° C., ~18 hours): 14 mm; zone of inhibition at 20 µg/disc [11, 30]: 0 mm; zone of inhibition at 20 µg/disc ([12]; read-out: Inhibition zone diameter, Pseu 1231, @ 20 g/disc): 0 mm; zone of inhibition at 20 µg/disc ([13]; read-out: Inhibition zone diameter, Str 2875, @ 20 g/disc): 0 mm; percentage in parentheses beside >3.0, [3H]L-365,260 (inhibition at top concentration, not defined) ([14]; beside IC50 >3.0): 40%; zone of inhibition at 20 µg/disc [15]: 0 mm |
